# Source: patent US4268630A, “Microbiological production of ketones from C3 -C6 alkanes” (priority 1979, dated 1981)
# “Also recorded” adds a separate entry of the source. Like-named read-outs stand apart in the source and are kept apart here.
# Key:
# [1] = tested on: Methanomonas methylovora ATCC 21852; assay: Oxidation of sec-alcohols to ketones by resting cell suspension; assay type: cell-based
# Experimental: (§1) The pH of the nutrient medium was adjusted to 7.0 by the addition of acid or base and 50 ml. samples of the nutrient medium were charged into a plurality of 300 ml. shaker flasks. The shaker flasks were inoculated with an inoculating loop of cells from an agar plate containing homogeneous colonies of the microorganisms on the plate (the purity of the isolates was confirmed by microscopic examination). The isolates had been maintained on methanol (0.4% V/V) agar plates or on agar plates under an atmosphere of methane and air having a 1:1 V/V gas ratio which had been transferred every two weeks. For growth on methanol, the medium was supplemented with 0.4% methanol. For growth on methane, the gaseous phase of the inoculated flasks was replaced with a gas mixture comprised on methane and air having a ratio of 1:1 on a V/V basis. The inoculated flasks were sealed air-tight and were incubated on a rotary shaker of orbital radius 2.5 cm. at 250 rpm and at 30° C. for two days until turbidity in the medium had developed. The cells were harvested by centrifugation at 10,000×g. at 4° C. for 30 minutes. The cell pellet was washed twice with a 0.05 M phosphate buffer at a pH of 7.0 (containing 0.02 M MgCl2). The washed cells were then suspended in a 0.05 M phosphate buffer at pH 7.0.
# (§2) A 0.5 ml. sample of each washed cell suspension (2 mg. cells) was put into 10 ml. vials at 4° C. which were sealed with a rubber cap. The gaseous phase of the vials was removed with vacuum and then was replaced with a gas mixture of the substrate reactant (i.e., alkane or secondary alcohol) and oxygen at a 1:1 V/V ratio. (In the case of a liquid substrate, i.e., secondary alcohol, 10 μl of the substrate was put in the 10 ml. vials). […] Samples of product (1-3 μl) were withdrawn periodically with a microsyringe and the products were analyzed by gas chromatography (ionization flame detector column).
# (§3) The procedure in Example 1 was repeated except that a plurality of methanol-utilizing methylotrophic microorganisms were each aerobically grown in a methanol-containing nutrient medium instead of a methane-containing medium. The nutrients in the medium were the same as indicated in Example 1 except that 0.4% V/V methanol was used as the alcohol dehydrogenase inducer and as the major carbon and energy source for growth. The cells were harvested and washed as described in Example 1. The resting microbial cells of the induced methanol-grown methanol-utilizing methylotrophic microorganisms were then contacted with C3 -C6 secondary alcohols in a buffered solution by the procedure of Example 1.
# (§4) The procedure in Example 1 was repeated except that the methylotrophic microorganisms were each aerobically grown in an alcohol dehydrogenase-inducing growth medium containing methylamine or methyl formate as the alcohol dehydrogenase enzyme inducer and growth substrate instead of methane. The nutrients in the medium were the same as indicated in Example 1 except that 0.4% V/V of the alcohol dehydrogenase-inducer growth substrate was used as the major carbon and energy source. The cells were harvested and washed as described in Example 1. The resting microbial cells were then contacted with C3 -C6 secondary alcohols in a buffered solution by the conversion procedure of Example 1.
# [2] = tested on: Pseudomonas sp. ATCC 21438; assay: as above; assay type: cell-based
# Experimental: as §1, §2, §3, §4
# [3] = tested on: secondary alcohol dehydrogenase (SADH); assay: Activity of purified secondary alcohol dehydrogenase (inhibition, substrate specificity, Km); assay type: biochemical, Pseudomonas sp. ATCC 21439; details: for relative percent rate of oxidation: 2-butanol = 100%
# Experimental: Secondary alcohol dehydrogenase (SADH) from an obligate methanol utilizer, Pseudomonas sp. ATCC 21439 was purified as follows. […] 0.05 M sodium phosphate buffer, pH 7.0 with 0.5 mM dithiothretol (buffer A) and were disrupted sonically (5×1 min.). The crude extract was separated by centrifugation. The crude extract was heat-treated at 50° C. in a water bath for 10 minutes. The resulting precipitate was removed by centrifugation. To the supernatant solution, 25 ml of protamine sulfate solution (2% solution in 0.1 M Tris base) was added dropwise with continuous stirring. After standing for 30 minutes, the extract was centrifuged. The supernatant solution was fractionated with solid ammonium sulfate. The material precipitating between 30 and 60% saturation was collected and was dialized overnight against buffer A. The The dialized material was applied to a DEAE-cellulose column (3 cm by 35 cm) that had been equilibrated with buffer A. The secondary alcohol dehydrogenase activity was eluted in the void volume. This DEAE-cellulose eluate was concentrated by ammonium sulfate fractionation. Material precipitating between 30 and 50% ammonium sulfate saturation was collected by centrifugation and dialyzed overnight against A. This fraction was further washed and filtered through an Amicon unit with XM 50 membrane. The concentrated fraction (6 ml) inside the Amicon unit was applied to an Affi-Gel Blue column (0.8 cm×18 cm) which had been equilibrated with buffer A for affinity chromatography. The column was washed overnight with buffer A (0.18 ml./min.) and then was eluted with buffer A containing 5 mM NAD. Each 1 ml. fraction was collected.
# The purified secondary alcohol dehydrogenase enzyme (SADH) may be used directly for converting C3 -C6 secondary alcohols to the corresponding methyl ketones by the procedures described above; however, a source of NAD^+ must be added to the reaction medium. One can determine the NAD-linked secondary alcohol dehydrogenase activity with a fluorescence spectrophotometer (Perkin Elmer, Model MPF 44A) by following the formation of reduced NAD (Ex 340 nm, Em 460 nm). The assay system (3 ml.) will typically contain: sodium phosphate buffer pH 7.0, 150 μmol; NAD 1.0 μmol; a given amount of enzyme preparation; and 20 μmol secondary alcohol. The reaction is started by the addition of secondary alcohol. One unit of SADH enzyme activity represents the reduction of one nmole NAD per minute.
# The effect of metal-chelating agents and thioreagents on the activity of the purified SADH enzyme were studied. […] The possibility of ethanol or n-propanol as an inhibitor was studied.
# [4] = tested on: Candida utilis ATCC 26387; assay: Oxidation of sec-alcohols to ketones by cell suspensions of yeasts; assay type: cell-based
# [5] = tested on: Hansenula polymorpha ATCC 26012; assay: as above; assay type: cell-based
# [6] = tested on: cell extracts of Torulopsis sp. strain A1 NRRL Y-11,419; assay: NAD+-dependent oxidation of secondary alcohols by cell extracts of yeasts; assay type: biochemical; details: for Conversion Rate, secondary alcohol to methylketone: cell extracts, grown on methanol, NAD+, gas chromatography
# [7] = tested on: cell suspensions of C1-utilizers; assay: Production of 2-butanone from 2-butanol / sec-alcohol oxidation by cell suspensions of the strains tested; assay type: cell-based; details: cell suspensions of C1-utilizers
# Text: The substrate specificity for the oxidation of C3 -C6 secondary alcohols by the strains of C1 -utilizers was studied.
# [8] = tested on: secondary alcohol dehydrogenase; assay: Activity of purified yeast-derived secondary alcohol dehydrogenase; assay type: biochemical, Pichia sp. NRRL Y-11,328
# [9] = tested on: cell extracts of Pichia sp. NRRL Y-11,328; assay: NAD+-dependent oxidation of secondary alcohols by cell extracts of yeasts; assay type: biochemical; details: grown on methanol, gas chromatography
Compound,"Conversion Rates, sec-alcohol to methyl ketone ([1]; methanol-grown, obligate) [μmoles/hr/mg protein]","Conversion Rates, sec-alcohol to methyl ketone ([1]; methyl formate-grown) [μmoles/hr/mg protein]","Conversion Rates, sec-alcohol to methyl ketone ([1]; methylamine-grown) [μmoles/hr/mg protein]","Conversion Rates, sec-alcohol to methyl ketone ([2]; methanol-grown, facultative) [μmoles/hr/mg protein]","Conversion Rates, sec-alcohol to methyl ketone ([2]; methyl formate-grown) [μmoles/hr/mg protein]","Conversion Rates, sec-alcohol to methyl ketone ([2]; methylamine-grown) [μmoles/hr/mg protein]",substrate specificity of purified SADH (in words) [3],"Conversion Rate, sec-alcohol to ketone ([4]; growth substrate Ethanol)","Conversion Rate, sec-alcohol to ketone ([4]; growth substrate Methanol)","Conversion Rate, sec-alcohol to ketone ([4]; growth substrate Methylamine)","Conversion Rate, sec-alcohol to ketone ([4]; growth substrate Methylformate)","Conversion Rate, sec-alcohol to ketone ([4]; growth substrate Propylamine)","Conversion Rate, sec-alcohol to ketone ([5]; growth substrate Ethanol)","Conversion Rate, sec-alcohol to ketone ([5]; growth substrate Methanol)","Conversion Rate, sec-alcohol to ketone ([5]; growth substrate Methylamine)","Conversion Rate, sec-alcohol to ketone ([5]; growth substrate Methylformate)","Conversion Rate, sec-alcohol to ketone ([5]; growth substrate Propylamine)","Conversion Rate, secondary alcohol to methylketone [6] [μmoles/hr/mg Protein]",substrate specificity: rate of oxidation of secondary alcohols (in words) [7],"Conversion Rate, secondary alcohol to methylketone [9] [μmoles/hr/mg Protein]",other results
"CCC(C)O (stereo not shown) [2-Butanol, 2-butanol]",2.5,2.1,3.2,3.2,3.2,2.1,highest,5.2 μmoles/hr/mg of protein,6.8 μmoles/hr/mg of protein,5.0 μmoles/hr/mg of protein,6.2 μmoles/hr/mg of protein,4.2 μmoles/hr/mg of protein,4.8 μmoles/hr/mg of protein,5.8 μmoles/hr/mg of protein,4.5 μmoles/hr/mg of protein,5.2 μmoles/hr/mg of protein,4.0 μmoles/hr/mg of protein,4.9,oxidized at the highest rate; also recorded: oxidized at higher rates,6.2,"specific activities ([6]; spectrophotometric, 2-butanol as substrate): 62 nmoles NAD^+ reduced per min. per mg. protein; substrate specificity of purified yeast secondary alcohol dehydrogenase (in words) [8]: catalyzed the oxidation"
"CC(C)O [2-Propanol, 2-propanol]",0.28,0.62,0.82,0.45,0.52,1.0,highest,5.2 μmoles/hr/mg of protein,6.2 μmoles/hr/mg of protein,5.0 μmoles/hr/mg of protein,5.6 μmoles/hr/mg of protein,4.2 μmoles/hr/mg of protein,5.0 μmoles/hr/mg of protein,5.9 μmoles/hr/mg of protein,5.2 μmoles/hr/mg of protein,5.6 μmoles/hr/mg of protein,4.1 μmoles/hr/mg of protein,4.5,oxidized at higher rates,5.5,relative percent rate of oxidation [3]: 85%; substrate specificity of purified yeast secondary alcohol dehydrogenase (in words) ([8]; spectrophotometric): catalyzed the oxidation
"CCCCC(C)O (stereo not shown) [2-Hexanol, 2-hexanol]",1.0,0.60,0.09,0.7,0.80,0.07,lower rate,0.72 μmoles/hr/mg of protein,0.8 μmoles/hr/mg of protein,0.61 μmoles/hr/mg of protein,0.75 μmoles/hr/mg of protein,0.52 μmoles/hr/mg of protein,0.54 μmoles/hr/mg of protein,0.72 μmoles/hr/mg of protein,0.62 μmoles/hr/mg of protein,0.70 μmoles/hr/mg of protein,0.48 μmoles/hr/mg of protein,0.21,oxidized at a much slower rate,0.60,relative percent rate of oxidation [3]: 2%; substrate specificity of purified yeast secondary alcohol dehydrogenase (in words) ([8]; spectrophotometric): catalyzed the oxidation
"CCCC(C)O (stereo not shown) [2-Pentanol, 2-pentanol]",2.1,1.5,1.0,2.7,2.0,0.82,lower rate,1.0 μmoles/hr/mg of protein,1.5 μmoles/hr/mg of protein,1.2 μmoles/hr/mg of protein,1.3 μmoles/hr/mg of protein,0.9 μmoles/hr/mg of protein,1.1 μmoles/hr/mg of protein,1.4 μmoles/hr/mg of protein,1.2 μmoles/hr/mg of protein,1.3 μmoles/hr/mg of protein,0.82 μmoles/hr/mg of protein,1.0,oxidized at a much slower rate,1.2,relative percent rate of oxidation [3]: 5%; substrate specificity of purified yeast secondary alcohol dehydrogenase (in words) ([8]; spectrophotometric): catalyzed the oxidation
